Experimental data reported in patent publication US20130096170A1 (priority 2011, published 2013).
Where two headings read alike, the source gives them in different places.

Tests used:
[1] = system: pediatric subjects 12 to <24 months; details: in vivo
[2] = for CL, Predicted Typical Value / Volume of Distribution, Predicted Typical Value / Weight-Adjusted CL, Predicted Typical Value / Weight-Adjusted V, Predicted Typical Value: model-predicted
clinical [3] = details: human, in vivo
clinical [4] = details: human, in vivo; remark: listed apart in the source
clinical [5] = details: human, in vivo; remark: listed apart in the source
clinical [6] = details: human, in vivo; remark: listed apart in the source
[7] = cited from earlier work
[8] = Dose Level 1, LD 0.25/CD 0.2 μg/kg/hr; full evaluable population
[9] = final population PK model, Examples 5, 3, 1 and 7
[10] = Su et al. model, subject 7.7 months, 7 kg, total bypass time 57 minutes
[11] = noncompartmental analysis of the adult long-term use data
[12] = population PK of 4 pooled pediatric intensive care studies (1 week to 14 years)
[13] = typical subject, adult population PK analysis of long-term (>24 h) use

Structure (SMILES): Cc1cccc([C@H](C)c2cnc[nH]2)c1C [dexmedetomidine]
- subjects with treatment-emergent adverse events ([1]; human): 20.0%
- safety and tolerability [1]: safe and well tolerated
- Magnitude of Interindividual Variability in Vc, final estimate ([2]; final population PK model): 53.76 % CV
- Exponent for power function effect of age on Q (population mean) [2, 9]: −0.342
- Exponent for power function effect of age on Vp (population mean) [2, 9]: −0.280
- Inter-compartmental CL (Q) (population mean) [2, 9]: 63.5 L/h
- Vc, volume of the central compartment (population mean) [2, 9]: 8.49 L
- Vp, volume of the peripheral compartment (population mean) [2, 9]: 14.7 L
- Magnitude of Interindividual Variability in CL, final estimate ([2]; final population PK model, cell spans CL rows): 37.01 % CV
- Magnitude of Interindividual Variability in Q, final estimate ([2]; final population PK model, cell spans Q rows): 161.25 % CV
- Magnitude of Interindividual Variability in Vp, final estimate ([2]; final population PK model, cell spans Vp rows): 51.19 % CV
- CL, Predicted Typical Value ([2]; 1 month-<6 months): 7.51 L/h
- Volume of Distribution, Predicted Typical Value ([2]; 1 month-<6 months): 18.75 L
- Weight-Adjusted CL, Predicted Typical Value ([2]; 1 month-<6 months): 20.9 mL/min/kg
- Weight-Adjusted V, Predicted Typical Value ([2]; 1 month-<6 months): 3.133 L/kg
- CL, Predicted Typical Value ([2]; 2 y-<6 y): 14.01 L/h
- Volume of Distribution, Predicted Typical Value ([2]; 2 y-<6 y): 28.09 L
- Weight-Adjusted CL, Predicted Typical Value ([2]; 2 y-<6 y): 16.98 mL/min/kg
- Weight-Adjusted V, Predicted Typical Value ([2]; 2 y-<6 y): 2.043 L/kg
- CL, Predicted Typical Value ([2]; 6 months-<12 months): 8.69 L/h
- Volume of Distribution, Predicted Typical Value ([2]; 6 months-<12 months): 19.95 L
- Weight-Adjusted CL, Predicted Typical Value ([2]; 6 months-<12 months): 19.92 mL/min/kg
- Weight-Adjusted V, Predicted Typical Value ([2]; 6 months-<12 months): 2.742 L/kg
- CL, Predicted Typical Value ([2]; 6 y-<17 y): 25.27 L/h
- Volume of Distribution, Predicted Typical Value ([2]; 6 y-<17 y): 52.97 L
- Weight-Adjusted CL, Predicted Typical Value ([2]; 6 y-<17 y): 14 mL/min/kg
- Weight-Adjusted V, Predicted Typical Value ([2]; 6 y-<17 y): 1.754 L/kg
- CL, Predicted Typical Value ([2]; 12 months-<24 months): 11.12 L/h
- Volume of Distribution, Predicted Typical Value ([2]; 12 months-<24 months): 23.85 L
- Weight-Adjusted CL, Predicted Typical Value ([2]; 12 months-<24 months): 18.35 mL/min/kg
- Weight-Adjusted V, Predicted Typical Value ([2]; 12 months-<24 months): 2.361 L/kg
- CL, Predicted Typical Value ([2]; 28 weeks GA-<1 month): 2.69 L/h
- Volume of Distribution, Predicted Typical Value ([2]; 28 weeks GA-<1 month): 16.21 L
- Weight-Adjusted CL, Predicted Typical Value ([2]; 28 weeks GA-<1 month): 15.6 mL/min/kg
- Weight-Adjusted V, Predicted Typical Value ([2]; 28 weeks GA-<1 month): 5.618 L/kg
- Tmax (clinical [3]; after the start of the maintenance infusion): 0.68 h
- Tmax (clinical [3]; before the end of the loading dose): ~0.08 h
- clearance (clinical [3]; clearance): ~95 mL/min
- half-life (clinical [3]; half-life): ~2 h
- half-life (clinical [3]; t1/2, Mean): 1.96 h
- clearance (clinical [3]; weight adjusted CL): ~10 mL/min/kg
- Vd (clinical [3]; weight adjusted Vd): ~1.6 L/kg
- clearance (clinical [4]; CL, Population Mean): 308 mL/min
- clearance (clinical [4]; CL, model value): 142 mL/min
- clearance (clinical [4]; Weight-Adjusted CL, Geo. Mean of individual Bayesian estimates): 16.5 mL/min/kg
- clearance (clinical [4]; Weight-Adjusted CL, Geometric Mean): 16.5 mL/min/kg
- half-life (clinical [4]; terminal elimination (β) half-life): 1.6 h
- clearance (clinical [5]; 0.05 ug/kg, CLw (clearance)): 6.83 mL/min/kg
- AUC(0-t) (clinical [5]; AUC (0-Last)): 0.708 ng·h/mL
- clearance (clinical [5]; CLw (weight adjusted clearance)): 4.83 mL/min/kg
- Vd (clinical [5]; Vss): 6.25 L
- half-life (clinical [5]; elimination t1/2): 4.77 h
- half-life (clinical [5]; t1/2): 8.32 h
- clearance (clinical [6]; Cl Mean): 171 mL/min
- clearance (clinical [6]; Cl Median): 162 mL/min
- Vd (clinical [6]; Vd Mean): 30.5 L
- Vd (clinical [6]; Vd Median): 29.1 L
- half-life (clinical [6]; apparent (mean) t1/2): 2.33 h
- half-life (clinical [6]; t1/2, Mean): 2.33 h
- half-life (clinical [6]; t1/2 Median): 1.87 h
- CL [7, 10]: 7.26 L/h
- Q [7, 10]: 24.1 L/h
- Vc [7, 10]: 8.4 L
- Vp [7, 10]: 10.2 L
- CL [7, 11]: 39.4 L/h
- volume of distribution [7, 11]: 152 L
- CL standardized to a 70-kg adult [7, 12]: 42.1 L/h
- volume of distribution standardized to a 70-kg adult [7, 12]: 125.3 L
- volume of distribution ([7]; product label for Precedex): 118 L
- CL ([7]; product label for Precedex, mean body weight 72 kg): 39 L/h
- CL [7, 13]: 35.8 L/h
- volume of distribution [7, 13]: 112.7 L
- Css Mean [8]: 402.026 µg/mL
- Css Median [8]: 197.991 µg/mL
- λz Mean [8]: 0.469 h⁻¹
- λz Median [8]: 0.446 h⁻¹
